Values quoted from earlier work, collected in publication PMC7867784 (Translational Lung Cancer Research, 2021).

Test system: RET-rearranged NSCLC
Conditions: cited from earlier work; for response rate and PFS in NSCLC with RET rearrangement: recent clinical trials

SMILES: COc1cc2nccc(Oc3ccc(NC(=O)C4(C(=O)Nc5ccc(F)cc5)CC4)cc3)c2cc1OC [cabozantinib]
- response rate (RET-rearranged NSCLC, 7/25 cases): 28%
- median PFS (RET-rearranged NSCLC): 5.5 months

SMILES: CO[C@]1(C(=O)N[C@@H](C)c2ccc(-n3cc(F)cn3)nc2)CC[C@H](c2nc(C)cc(Nc3cc(C)[nH]n3)n2)CC1 [pralsetinib]
- response rate and PFS in NSCLC with RET rearrangement: high response rate and prolonged PFS

SMILES: COc1ccc(CN2C3CC2CN(c2ccc(-c4cc(OCC(C)(C)O)cn5ncc(C#N)c45)cn2)C3)cn1 [selpercatinib]
- response rate and PFS in NSCLC with RET rearrangement: high response rate and prolonged PFS
